In patent US12522583B2, “Benzimidazole derivatives and aza-benzimidazole derivatives as Janus kinase 2 inhibitors and uses thereof” (Dana-Farber Cancer Institute, Inc., priority 2018, dated 2026):

What was measured:
Assay in all cases: KINOMEscan
Assay type in all cases: binding
ANKK1 = ANKK1 (Homo sapiens (Human), UniProt Q8NFD2); conditions: read-out: percent control
Description: (§1) Example 2. In Vitro Kinase Selectivity Profiling of the Compounds of the Present Disclosure

ARK5 = ARK5 (Homo sapiens (Human), UniProt O60285); conditions: read-out: percent control
Chain of ARK5 (O60285 whole entry): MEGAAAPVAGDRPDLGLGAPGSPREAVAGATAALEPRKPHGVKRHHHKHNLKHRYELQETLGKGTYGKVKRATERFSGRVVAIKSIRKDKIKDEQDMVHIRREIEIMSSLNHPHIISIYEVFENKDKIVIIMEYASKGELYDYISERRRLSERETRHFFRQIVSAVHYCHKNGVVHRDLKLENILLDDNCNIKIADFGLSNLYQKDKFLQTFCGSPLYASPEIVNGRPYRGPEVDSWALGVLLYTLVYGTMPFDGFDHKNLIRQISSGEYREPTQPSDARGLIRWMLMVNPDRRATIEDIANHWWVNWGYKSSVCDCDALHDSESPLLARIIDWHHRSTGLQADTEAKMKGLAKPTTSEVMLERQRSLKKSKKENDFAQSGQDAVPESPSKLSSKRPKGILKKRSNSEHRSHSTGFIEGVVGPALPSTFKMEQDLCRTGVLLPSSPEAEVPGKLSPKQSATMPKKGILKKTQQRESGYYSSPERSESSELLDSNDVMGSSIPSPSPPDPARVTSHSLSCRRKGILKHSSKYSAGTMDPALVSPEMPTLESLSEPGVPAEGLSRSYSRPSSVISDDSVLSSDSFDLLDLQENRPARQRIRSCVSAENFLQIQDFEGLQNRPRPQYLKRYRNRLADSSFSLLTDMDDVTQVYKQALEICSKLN
Description: as §1

BIKE = BIKE (Homo sapiens (Human), UniProt Q9NSY1); conditions: read-out: percent control
Description: as §1

CAMK4 = CAMK4 (Homo sapiens (Human), UniProt Q16566); conditions: read-out: percent control
Description: as §1

CDKL5 = CDKL5 (Homo sapiens (Human), UniProt O76039); conditions: read-out: percent control
Description: as §1

CIT = CIT (Homo sapiens (Human), UniProt O14578); conditions: read-out: percent control
Description: as §1

[1] = molecular target: EGFR(L747-S752del, P753S) (Homo sapiens (Human), UniProt P00533, DEL747-752/P753S); conditions: read-out: percent control
Chain of EGFR(L747-S752del, P753S) (P00533 other isoform, or with tags, fused parts or gaps P753S/del L747-S752): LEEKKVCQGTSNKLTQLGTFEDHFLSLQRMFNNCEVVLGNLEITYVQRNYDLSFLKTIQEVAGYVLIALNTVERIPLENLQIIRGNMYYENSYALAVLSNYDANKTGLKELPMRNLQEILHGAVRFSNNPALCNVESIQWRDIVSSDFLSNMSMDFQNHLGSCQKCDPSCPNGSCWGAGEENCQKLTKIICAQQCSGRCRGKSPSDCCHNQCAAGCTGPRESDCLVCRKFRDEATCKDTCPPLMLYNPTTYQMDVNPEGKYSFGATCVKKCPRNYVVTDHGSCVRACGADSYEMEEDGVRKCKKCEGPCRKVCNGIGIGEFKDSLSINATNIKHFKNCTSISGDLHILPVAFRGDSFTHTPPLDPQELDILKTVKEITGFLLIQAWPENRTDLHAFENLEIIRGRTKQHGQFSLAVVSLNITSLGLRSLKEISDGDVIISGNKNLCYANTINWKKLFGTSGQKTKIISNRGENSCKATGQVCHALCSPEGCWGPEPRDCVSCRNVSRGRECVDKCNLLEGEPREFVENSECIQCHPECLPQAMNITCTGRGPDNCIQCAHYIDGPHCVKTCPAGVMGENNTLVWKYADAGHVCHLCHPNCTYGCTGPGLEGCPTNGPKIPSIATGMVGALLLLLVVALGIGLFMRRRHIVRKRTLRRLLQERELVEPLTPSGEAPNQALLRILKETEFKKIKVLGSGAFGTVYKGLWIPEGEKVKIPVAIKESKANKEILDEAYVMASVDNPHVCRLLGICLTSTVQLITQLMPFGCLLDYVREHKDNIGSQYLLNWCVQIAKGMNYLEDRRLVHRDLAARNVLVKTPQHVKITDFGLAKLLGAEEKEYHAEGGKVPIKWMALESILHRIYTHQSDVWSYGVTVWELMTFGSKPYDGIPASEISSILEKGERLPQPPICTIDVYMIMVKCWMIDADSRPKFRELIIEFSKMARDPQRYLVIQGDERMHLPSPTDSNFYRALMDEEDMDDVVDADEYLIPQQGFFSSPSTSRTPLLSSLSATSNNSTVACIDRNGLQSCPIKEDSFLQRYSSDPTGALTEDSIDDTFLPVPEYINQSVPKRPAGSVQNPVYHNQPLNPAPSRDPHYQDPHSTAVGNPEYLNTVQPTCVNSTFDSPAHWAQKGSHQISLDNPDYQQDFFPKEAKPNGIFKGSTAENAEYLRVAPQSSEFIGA
Description: as §1

EPHA2 = EPHA2 (Homo sapiens (Human), UniProt P29317); conditions: read-out: percent control
Description: as §1

EPHA6 = EPHA6 (Homo sapiens (Human), UniProt Q9UF33); conditions: read-out: percent control
Description: as §1

EPHB4 = EPHB4 (Homo sapiens (Human), UniProt P54760); conditions: read-out: percent control
Description: as §1

FLT3(ITD, D835V) = conditions: 1 μM
Description: as §1

FLT3(N841I) = FLT3(N841I) (Homo sapiens (Human), UniProt P36888, N841I); conditions: read-out: percent control
Description: as §1

FLT3(R834Q) = FLT3(R834Q) (Homo sapiens (Human), UniProt P36888, R834Q); conditions: read-out: percent control
Description: as §1

FLT3-autoinhibited = FLT3-autoinhibited (Homo sapiens (Human), UniProt P36888); conditions: read-out: percent control
Description: as §1

GCN2(Kin.Dom.2, S808G) = GCN2(Kin.Dom.2, S808G) (Homo sapiens, UniProt Q9P2K8, S808G); conditions: read-out: percent control
Description: as §1

GRK2 = GRK2 (Homo sapiens (Human), UniProt P25098); conditions: read-out: percent control
Description: as §1

HUNK = HUNK (Homo sapiens (Human), UniProt P57058); conditions: read-out: percent control
Description: as §1

[2] = molecular target: JAK3(JH1domain-catalytic) (Homo sapiens (Human), UniProt P52333); conditions: read-out: percent control
Description: as §1

KIT(A829P) = KIT(A829P) (Homo sapiens (Human), UniProt P10721, A829P); conditions: read-out: percent control
Description: as §1

LZK = LZK (Homo sapiens (Human), UniProt O43283); conditions: read-out: percent control
Description: as §1

MAK = MAK (Homo sapiens (Human), UniProt P20794); conditions: read-out: percent control
Description: as §1

MET = MET (Homo sapiens (Human), UniProt P08581); conditions: read-out: percent control
Chain of MET (P08581 25-1390): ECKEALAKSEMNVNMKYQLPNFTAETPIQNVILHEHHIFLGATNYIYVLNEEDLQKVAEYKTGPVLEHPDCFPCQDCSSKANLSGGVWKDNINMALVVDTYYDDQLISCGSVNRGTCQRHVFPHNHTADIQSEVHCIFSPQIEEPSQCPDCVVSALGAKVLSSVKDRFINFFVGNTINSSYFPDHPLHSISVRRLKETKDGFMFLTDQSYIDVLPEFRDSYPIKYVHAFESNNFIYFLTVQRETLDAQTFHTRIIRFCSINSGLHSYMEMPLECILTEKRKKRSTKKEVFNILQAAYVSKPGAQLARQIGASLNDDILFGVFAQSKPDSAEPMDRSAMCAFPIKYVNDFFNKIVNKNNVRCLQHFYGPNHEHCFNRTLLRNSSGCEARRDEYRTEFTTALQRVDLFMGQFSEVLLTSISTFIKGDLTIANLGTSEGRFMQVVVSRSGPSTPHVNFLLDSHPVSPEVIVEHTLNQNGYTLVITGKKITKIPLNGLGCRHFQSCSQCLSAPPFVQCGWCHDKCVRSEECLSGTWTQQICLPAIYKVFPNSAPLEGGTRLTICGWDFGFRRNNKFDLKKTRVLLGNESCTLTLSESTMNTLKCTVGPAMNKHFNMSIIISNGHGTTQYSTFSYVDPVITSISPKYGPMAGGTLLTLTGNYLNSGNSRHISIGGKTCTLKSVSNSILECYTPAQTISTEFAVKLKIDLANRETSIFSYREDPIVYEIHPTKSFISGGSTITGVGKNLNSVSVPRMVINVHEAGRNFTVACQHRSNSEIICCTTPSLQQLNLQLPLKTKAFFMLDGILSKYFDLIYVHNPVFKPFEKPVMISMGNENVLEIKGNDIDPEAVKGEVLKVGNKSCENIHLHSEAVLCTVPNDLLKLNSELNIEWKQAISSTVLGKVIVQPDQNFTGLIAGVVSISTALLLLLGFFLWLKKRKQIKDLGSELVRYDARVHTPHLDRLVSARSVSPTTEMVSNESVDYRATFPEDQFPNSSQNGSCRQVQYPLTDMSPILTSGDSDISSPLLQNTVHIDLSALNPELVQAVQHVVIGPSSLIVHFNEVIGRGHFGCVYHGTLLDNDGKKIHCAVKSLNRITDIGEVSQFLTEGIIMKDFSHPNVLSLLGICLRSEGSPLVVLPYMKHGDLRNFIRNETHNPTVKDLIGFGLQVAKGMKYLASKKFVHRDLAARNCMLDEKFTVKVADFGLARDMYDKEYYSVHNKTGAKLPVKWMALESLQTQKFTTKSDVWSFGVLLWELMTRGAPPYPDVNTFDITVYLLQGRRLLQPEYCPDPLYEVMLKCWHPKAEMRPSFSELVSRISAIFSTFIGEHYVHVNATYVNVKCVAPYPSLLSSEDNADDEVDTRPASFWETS
Description: as §1

MKNK1 = MKNK1 (Homo sapiens (Human), UniProt Q9BUB5); conditions: read-out: percent control
Description: as §1

MKNK2 = MKNK2 (Homo sapiens (Human), UniProt Q9HBH9); conditions: read-out: percent control
Description: as §1

MST2 = MST2 (Homo sapiens (Human), UniProt Q13188); conditions: read-out: percent control
Description: as §1

NEK11 = NEK11 (Homo sapiens (Human), UniProt Q8NG66); conditions: read-out: percent control
Description: as §1

PAK4 = PAK4 (Homo sapiens (Human), UniProt O96013); conditions: read-out: percent control
Description: as §1

PAK7 = PAK7 (Homo sapiens (Human), UniProt Q9P286); conditions: read-out: percent control
Description: as §1

PIK3CA(M1043I) = PIK3CA(M1043I) (Homo sapiens (Human), UniProt P42336, M1043I); conditions: read-out: percent control
Description: as §1

PIK4CB = PIK4CB (Homo sapiens (Human), UniProt Q9UBF8); conditions: read-out: percent control
Description: as §1

PIM2 = PIM2 (Homo sapiens (Human), UniProt Q9P1W9); conditions: read-out: percent control
Description: as §1

PLK3 = PLK3 (Homo sapiens (Human), UniProt Q9H4B4); conditions: read-out: percent control
Description: as §1

[3] = molecular target: RPS6KA4(Kin.Dom.1-terminal) (Homo sapiens (Human), UniProt O75676); conditions: read-out: percent control
Description: as §1

[4] = molecular target: RSK4(Kin.Dom.1-N-terminal) (Homo sapiens (Human), UniProt Q9UK32); conditions: read-out: percent control
Description: as §1

TAOK2 = TAOK2 (Homo sapiens (Human), UniProt Q9UL54); conditions: read-out: percent control
Description: as §1

TBK1 = TBK1 (Homo sapiens (Human), UniProt Q9UHD2); conditions: read-out: percent control
Chain of TBK1 (Q9UHD2 whole entry): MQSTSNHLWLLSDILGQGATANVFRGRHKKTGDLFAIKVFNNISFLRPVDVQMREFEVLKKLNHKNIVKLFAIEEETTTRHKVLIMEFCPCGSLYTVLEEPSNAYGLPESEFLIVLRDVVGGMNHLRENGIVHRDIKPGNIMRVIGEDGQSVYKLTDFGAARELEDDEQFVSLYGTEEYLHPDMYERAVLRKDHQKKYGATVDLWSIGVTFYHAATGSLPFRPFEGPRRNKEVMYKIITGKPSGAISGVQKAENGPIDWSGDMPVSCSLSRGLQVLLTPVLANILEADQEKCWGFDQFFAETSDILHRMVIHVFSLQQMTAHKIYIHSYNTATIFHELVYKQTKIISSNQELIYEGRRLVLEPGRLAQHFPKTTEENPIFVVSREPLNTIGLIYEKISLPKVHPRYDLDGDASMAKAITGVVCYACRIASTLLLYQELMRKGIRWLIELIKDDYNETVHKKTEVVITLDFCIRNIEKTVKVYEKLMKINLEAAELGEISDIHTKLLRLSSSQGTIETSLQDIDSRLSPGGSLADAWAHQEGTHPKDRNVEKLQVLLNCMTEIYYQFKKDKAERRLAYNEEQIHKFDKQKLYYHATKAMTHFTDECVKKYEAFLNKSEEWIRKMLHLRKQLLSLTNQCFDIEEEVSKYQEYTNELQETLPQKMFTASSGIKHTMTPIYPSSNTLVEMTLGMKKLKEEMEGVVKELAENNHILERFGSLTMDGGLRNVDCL
Description: as §1

TIE2 = TIE2 (Homo sapiens (Human), UniProt Q02763); conditions: read-out: percent control
Chain of TIE2 (Q02763 23-1124): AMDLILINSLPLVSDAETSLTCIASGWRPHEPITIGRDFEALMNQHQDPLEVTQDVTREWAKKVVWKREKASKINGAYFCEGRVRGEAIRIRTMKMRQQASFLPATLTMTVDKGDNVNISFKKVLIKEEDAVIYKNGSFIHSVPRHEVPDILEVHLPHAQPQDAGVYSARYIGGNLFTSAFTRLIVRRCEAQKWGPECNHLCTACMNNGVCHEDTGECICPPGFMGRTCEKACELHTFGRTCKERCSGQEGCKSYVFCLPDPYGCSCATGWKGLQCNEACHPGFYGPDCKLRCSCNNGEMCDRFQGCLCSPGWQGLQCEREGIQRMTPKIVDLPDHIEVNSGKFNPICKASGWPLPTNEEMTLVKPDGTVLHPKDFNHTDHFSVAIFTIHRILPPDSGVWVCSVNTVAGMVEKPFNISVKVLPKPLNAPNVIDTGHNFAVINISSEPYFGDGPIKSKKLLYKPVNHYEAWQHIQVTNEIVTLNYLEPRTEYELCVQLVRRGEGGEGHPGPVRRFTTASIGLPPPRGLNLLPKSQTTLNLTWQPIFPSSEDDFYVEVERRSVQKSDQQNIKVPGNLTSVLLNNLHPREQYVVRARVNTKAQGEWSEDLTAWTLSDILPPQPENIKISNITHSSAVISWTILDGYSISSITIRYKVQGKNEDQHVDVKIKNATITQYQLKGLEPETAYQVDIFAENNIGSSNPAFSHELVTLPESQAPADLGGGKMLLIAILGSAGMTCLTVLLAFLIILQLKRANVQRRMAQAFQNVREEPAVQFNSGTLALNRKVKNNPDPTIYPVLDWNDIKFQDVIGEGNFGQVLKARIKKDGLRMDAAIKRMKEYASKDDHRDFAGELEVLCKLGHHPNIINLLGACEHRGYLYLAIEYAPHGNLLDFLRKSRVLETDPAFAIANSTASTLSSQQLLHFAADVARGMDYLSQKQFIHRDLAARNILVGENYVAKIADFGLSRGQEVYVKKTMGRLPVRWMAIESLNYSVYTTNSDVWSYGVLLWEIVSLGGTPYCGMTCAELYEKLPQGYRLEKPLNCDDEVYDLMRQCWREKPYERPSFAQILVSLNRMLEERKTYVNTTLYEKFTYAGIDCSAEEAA
Description: as §1

TNK2 = TNK2 (Homo sapiens (Human), UniProt Q07912); conditions: read-out: percent control
Description: as §1

TSSK1B = TSSK1B (Homo sapiens (Human), UniProt Q9BXA7); conditions: read-out: percent control
Description: as §1

YANK3 = YANK3 (Homo sapiens (Human), UniProt Q86UX6); conditions: read-out: percent control
Description: as §1

Q: How did the remaining binding at 1 µM (ANKK1) turn out when `CCN1CCN(Cc2ccc(Nc3nc4ccc(Oc5ccnc(NC(C)=O)c5)cc4n3C)cc2C(F)(F)F)CC1` [Compound I-2] was run?
A: 100%

Q: And the remaining binding at 1 µM (ARK5)?
A: 100%

Q: And the remaining binding at 1 µM (BIKE)?
A: 88%

Q: And the remaining binding at 1 µM (CAMK4)?
A: 98%

Q: And the remaining binding at 1 µM (CDKL5)?
A: 96%

Q: What about the remaining binding at 1 µM (CIT) of the same compound?
A: 90%

Q: And the remaining binding at 1 µM [1]?
A: 80%

Q: And the remaining binding at 1 µM (EPHA2)?
A: 100%

Q: What about the remaining binding at 1 µM (EPHA6) of the same compound?
A: 100%

Q: And the remaining binding at 1 µM (EPHB4)?
A: 100%

Q: What about the percent control (FLT3(ITD, D835V)) of the same compound?
A: 100%

Q: What about the remaining binding at 1 µM (FLT3(N841I)) of the same compound?
A: 11%

Q: And the remaining binding at 1 µM (FLT3(R834Q))?
A: 100%

Q: What about the remaining binding at 1 µM (FLT3-autoinhibited) of the same compound?
A: 100%

Q: What about the remaining binding at 1 µM (GCN2(Kin.Dom.2, S808G)) of the same compound?
A: 28%

Q: And the remaining binding at 1 µM (GRK2)?
A: 100%

Q: And the remaining binding at 1 µM (HUNK)?
A: 65%

Q: What about the remaining binding at 1 µM [2] of the same compound?
A: 84%

Q: What about the remaining binding at 1 µM (KIT(A829P)) of the same compound?
A: 0%

Q: What about the remaining binding at 1 µM (LZK) of the same compound?
A: 100%

Q: And the remaining binding at 1 µM (MAK)?
A: 78%

Q: And the remaining binding at 1 µM (MET)?
A: 43%

Q: What about the remaining binding at 1 µM (MKNK1) of the same compound?
A: 95%

Q: What about the remaining binding at 1 µM (MKNK2) of the same compound?
A: 82%

Q: What about the remaining binding at 1 µM (MST2) of the same compound?
A: 81%

Q: And the remaining binding at 1 µM (NEK11)?
A: 100%

Q: And the remaining binding at 1 µM (PAK4)?
A: 94%

Q: What about the remaining binding at 1 µM (PAK7) of the same compound?
A: 86%

Q: And the remaining binding at 1 µM (PIK3CA(M1043I))?
A: 78%

Q: What about the remaining binding at 1 µM (PIK4CB) of the same compound?
A: 99%

Q: And the remaining binding at 1 µM (PIM2)?
A: 91%

Q: What about the remaining binding at 1 µM (PLK3) of the same compound?
A: 81%

Q: What about the remaining binding at 1 µM [3] of the same compound?
A: 100%

Q: And the remaining binding at 1 µM [4]?
A: 100%

Q: What about the remaining binding at 1 µM (TAOK2) of the same compound?
A: 0.25%

Q: And the remaining binding at 1 µM (TBK1)?
A: 73%

Q: What about the remaining binding at 1 µM (TIE2) of the same compound?
A: 81%

Q: What about the remaining binding at 1 µM (TNK2) of the same compound?
A: 94%

Q: And the remaining binding at 1 µM (TSSK1B)?
A: 100%

Q: What about the remaining binding at 1 µM (YANK3) of the same compound?
A: 100%

Q: For `CCN1CCN(Cc2ccc(Nc3nc4ccc(Oc5ccnc(NC(C)=O)c5)c(C)c4n3C)cc2C(F)(F)F)CC1` [Compound I-6, N-(4-(2-(4-((4-ethylpiperazin-1-yl)methyl)-3-(trifluoromethyl)phenylamino)-1,7-dimethyl-1H-benzo[d]imidazol-6-yloxy)pyridin-2-yl)acetamide], which remaining binding at 1 µM (ANKK1) is on record?
A: 100%

Q: And the remaining binding at 1 µM (ARK5)?
A: 100%

Q: What about the remaining binding at 1 µM (BIKE) of the same compound?
A: 96%

Q: And the remaining binding at 1 µM (CAMK4)?
A: 100%

Q: And the remaining binding at 1 µM (CDKL5)?
A: 92%

Q: And the remaining binding at 1 µM (CIT)?
A: 79%

Q: What about the remaining binding at 1 µM [1] of the same compound?
A: 94%

Q: What about the remaining binding at 1 µM (EPHA2) of the same compound?
A: 68%

Q: What about the remaining binding at 1 µM (EPHA6) of the same compound?
A: 96%

Q: And the remaining binding at 1 µM (EPHB4)?
A: 90%

Q: What about the percent control (FLT3(ITD, D835V)) of the same compound?
A: 61%

Q: What about the remaining binding at 1 µM (FLT3(N841I)) of the same compound?
A: 14%

Q: And the remaining binding at 1 µM (FLT3(R834Q))?
A: 57%

Q: What about the remaining binding at 1 µM (FLT3-autoinhibited) of the same compound?
A: 66%

Q: What about the remaining binding at 1 µM (GCN2(Kin.Dom.2, S808G)) of the same compound?
A: 44%

Q: What about the remaining binding at 1 µM (GRK2) of the same compound?
A: 91%

Q: What about the remaining binding at 1 µM (HUNK) of the same compound?
A: 91%

Q: And the remaining binding at 1 µM [2]?
A: 72%

Q: And the remaining binding at 1 µM (KIT(A829P))?
A: 0%

Q: What about the remaining binding at 1 µM (LZK) of the same compound?
A: 75%

Q: What about the remaining binding at 1 µM (MAK) of the same compound?
A: 86%

Q: What about the remaining binding at 1 µM (MET) of the same compound?
A: 40%

Q: And the remaining binding at 1 µM (MKNK1)?
A: 80%

Q: And the remaining binding at 1 µM (MKNK2)?
A: 66%

Q: And the remaining binding at 1 µM (MST2)?
A: 58%

Q: What about the remaining binding at 1 µM (NEK11) of the same compound?
A: 61%

Q: And the remaining binding at 1 µM (PAK4)?
A: 97%

Q: And the remaining binding at 1 µM (PAK7)?
A: 16%

Q: And the remaining binding at 1 µM (PIK3CA(M1043I))?
A: 100%

Q: What about the remaining binding at 1 µM (PIK4CB) of the same compound?
A: 73%

Q: And the remaining binding at 1 µM (PIM2)?
A: 92%

Q: And the remaining binding at 1 µM (PLK3)?
A: 93%

Q: And the remaining binding at 1 µM [3]?
A: 93%

Q: And the remaining binding at 1 µM [4]?
A: 93%

Q: What about the remaining binding at 1 µM (TAOK2) of the same compound?
A: 0%

Q: What about the remaining binding at 1 µM (TBK1) of the same compound?
A: 100%

Q: And the remaining binding at 1 µM (TIE2)?
A: 36%

Q: And the remaining binding at 1 µM (TNK2)?
A: 100%

Q: And the remaining binding at 1 µM (TSSK1B)?
A: 100%

Q: What about the remaining binding at 1 µM (YANK3) of the same compound?
A: 89%
